According to PubChem BioAssay (NCI):
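How tested: cells in 96-well plates exposed to compound for 48 hours at five concentrations. TGI denotes the concentration required for complete inhibition of growth.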

Columns and labels:
Test in all cases: NCI-60 cell line screen, 48 h
HCT-15 colon = test system: HCT-15 colon
COLO 205 colon = test system: COLO 205 colon
PC-3 prostate = test system: PC-3 prostate
HOP-92 NSCLC = test system: HOP-92 NSCLC
MDA-MB-435 = test system: MDA-MB-435
CAKI-1 renal = test system: CAKI-1 renal
NCI-H23 lung = test system: NCI-H23 lung
SK-MEL-2 melanoma = test system: SK-MEL-2 melanoma
SNB-19 CNS = test system: SNB-19 CNS
HT29 colon = test system: HT29 colon
KM12 colon = test system: KM12 colon
MCF7 breast = test system: MCF7 breast
MOLT-4 leukemia = test system: MOLT-4 leukemia
RXF 393 renal = test system: RXF 393 renal
SF-268 CNS = test system: SF-268 CNS
SK-MEL-28 melanoma = test system: SK-MEL-28 melanoma
EKVX NSCLC = test system: EKVX NSCLC
RPMI-8226 leukemia = test system: RPMI-8226 leukemia
UACC-257 melanoma = test system: UACC-257 melanoma
SK-MEL-5 melanoma = test system: SK-MEL-5 melanoma
BT-549 breast = test system: BT-549 breast
OVCAR-4 ovarian = test system: OVCAR-4 ovarian
IGROV1 ovarian = test system: IGROV1 ovarian
HCC-2998 colon = test system: HCC-2998 colon
NCI-H460 lung = test system: NCI-H460 lung
UO-31 renal = test system: UO-31 renal
HCT-116 colon = test system: HCT-116 colon
HL-60(TB) leukemia = test system: HL-60(TB) leukemia
MDA-MB-231 breast = test system: MDA-MB-231 breast
SNB-75 CNS = test system: SNB-75 CNS
SW-620 colon = test system: SW-620 colon
A498 renal = test system: A498 renal
LOX IMVI melanoma = test system: LOX IMVI melanoma
SR leukemia = test system: SR leukemia
ACHN renal = test system: ACHN renal
SF-295 CNS = test system: SF-295 CNS
DU-145 prostate = test system: DU-145 prostate
T-47D breast = test system: T-47D breast
U251 CNS = test system: U251 CNS
CCRF-CEM leukemia = test system: CCRF-CEM leukemia
NCI/ADR-RES ovarian = test system: NCI/ADR-RES ovarian
OVCAR-8 ovarian = test system: OVCAR-8 ovarian
K-562 leukemia = test system: K-562 leukemia
M14 melanoma = test system: M14 melanoma
SF-539 CNS = test system: SF-539 CNS
HOP-62 NSCLC = test system: HOP-62 NSCLC
786-0 renal = test system: 786-0 renal
UACC-62 melanoma = test system: UACC-62 melanoma
SK-OV-3 ovarian = test system: SK-OV-3 ovarian
NCI-H226 lung = test system: NCI-H226 lung
HS 578T breast = test system: HS 578T breast
TK-10 renal = test system: TK-10 renal

Measured: TGI

CCOC(=O)c1c(NC(=O)Nc2ccccc2)c(C(N)=O)c2n1CCCCC2
> 100 µM: all assays above
